Assay results published in patent publication US8008303B2, “Biphenyl derivatives and their use in treating hepatitis C” (AstraZeneca AB, priority 2005, dated 2011).
Read-outs that look alike come from different tables or passages of the source.

Legend:
[1] = test system: HCV replicon cells Huh 9B; test: HCV replicon assay (luciferase readout); type: cell-based
Method in brief: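 Compounds, made up at twice final strength (final DMSO 1%), were added to subgenomic replicon cells one day after plating. Incubation then ran 72 h at 37 °C, 5% CO2, without G418. Replication was quantified as firefly luciferase luminescence in lysed cells, with cytotoxicity assessed on a duplicate clear plate.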

[2] = test system: HCV replicon cells Huh 9B; type: cell-based
[3] = Hepatitis C virus, 72 h, concentration reducing replicon level (luciferase activity) by 50% vs untreated cell control, 72 h incubation
[4] = concentration reducing total cell area by 50% relative to DMSO controls, methylene blue, absorbance 620 nm, 72 h incubation

| SMILES | IC50 [1, 3] | TD50 [2, 4] | IC50 [1] | TD50 [2] |
| --- | --- | --- | --- | --- |
| Cc1ccc(NC(=O)C2CC2)cc1-c1ccc(C(=O)Nc2ccc(CN3CCS(=O)(=O)CC3)cc2)cc1 [Example 132, 5′-(Cyclopropanecarbonyl-amino)-2′-methyl-biphenyl-4-carboxylic acid [4-(1,1-dioxo-1lambda*6*-thiomorpholin-4-ylmethyl)-phenyl]-amide] | < 1000 nM | * (* < 50 μM) |  |  |
| CCCS(=O)(=O)N1CCN(Cc2ccc(NC(=O)c3ccc(-c4cc(NC(=O)NC5CCCCC5)ccc4Cl)cc3)cc2)CC1 [Example 253, 2′-Chloro-5′-(3-cyclohexyl-ureido)-biphenyl-4-carboxylic acid {4-[4-(propane-1-sulfonyl)-piperazin-1-ylmethyl]-phenyl}-amide] | < 1000 nM | * (* < 50 μM) |  |  |
| Cc1ccc(C(=O)NCCN2CCCCC2)cc1-c1ccc(C(=O)Nc2ccc(CN3CCS(=O)(=O)CC3)cc2)cc1 [Example 125, 6-Methyl-biphenyl-3,4′-dicarboxylic acid 4′-{[4-(1,1-dioxo-1lambda*6*-thiomorpholin-4-ylmethyl)-phenyl]-amide} 3-[(2-piperidin-1-yl-ethyl)-amide]] |  |  | 1000 to 5000 nM | * (key: * < 50 μM; ** > 50 μM) |
| Cc1ccc(C(=O)Nc2ccc(CN3CCS(=O)(=O)CC3)cc2)cc1-c1ccc(C(=O)Nc2ccc(CN3CCS(=O)(=O)CC3)cc2)cc1 [Example 129, 6-Methyl-biphenyl-3,4′-dicarboxylic acid bis-{[4-(1,1-dioxo-1lambda*6*-thiomorpholin-4-ylmethyl)-phenyl]-amide}] | < 1000 nM | * (* < 50 μM) |  |  |
| Cc1ccc(C(=O)Nc2ccc(N3CCOCC3)cc2)cc1-c1ccc(CNCCc2cnc[nH]2)cc1 [Example 100, 4′-{[2-(3H-Imidazol-4-yl)-ethylamino]-methyl}-6-methyl-biphenyl-3-carboxylic acid (4-morpholin-4-yl-phenyl)-amide] | 1000 to 5000 nM | ** (** > 50 μM) |  |  |
| Cc1ccc(NC(=O)C2(C(F)(F)F)CC2)cc1-c1ccc(C(=O)Nc2ccc(CN3CCS(=O)(=O)CC3)cc2)cc1 [Example 173, 2′-Methyl-5′-[(1-trifluoromethyl-cyclopropanecarbonyl)-amino]-biphenyl-4-carboxylic acid [4-(1,1-dioxo-1lambda*6*-thiomorpholin-4-ylmethyl)-phenyl]-amide] | 1000 to 5000 nM | * (* < 50 μM) |  |  |
| Cc1ccc(NC(=O)C2CCCCC2)cc1-c1ccc(C(=O)Nc2ccc(CO)cc2)cc1 [Example 232, 5′-(Cyclohexanecarbonyl-amino)-2′-methyl-biphenyl-4-carboxylic acid (4-hydroxymethyl-phenyl)-amide] | < 1000 nM | * (* < 50 μM) |  |  |
| CCC(CC)C(=O)Nc1ccc(C)c(-c2ccc(C(=O)Nc3ccc(CN4CCS(=O)(=O)CC4)cc3)cc2)c1 [Example 181, 5′-(2-Ethyl-butyrylamino)-2′-methyl-biphenyl-4-carboxylic acid [4-(1,1-dioxo-1lambda*6*-thiomorpholin-4-ylmethyl)-phenyl]-amide] | < 1000 nM | * (* < 50 μM) |  |  |
| Cc1ccc(NC(=O)c2ccc(Br)cc2)cc1-c1ccc(C(=O)Nc2ccc3cn[nH]c3c2)cc1 [Example 211, 5′-(4-Bromo-benzoylamino)-2′-methyl-biphenyl-4-carboxylic acid (1H-indazol-6-yl)-amide] | 1000 to 5000 nM | * (* < 50 μM) |  |  |
| Cc1ccc(NC(=O)c2ccc(Br)cc2)cc1-c1ccc(C(=O)Nc2ccc(-c3cnco3)cc2)cc1 [Example 212, 5′-(4-Bromo-benzoylamino)-2′-methyl-biphenyl-4-carboxylic acid (4-oxazol-5-yl-phenyl)-amide] | > 5000 nM | ** (** > 50 μM) |  |  |
| O=C(Nc1ccc(CN2CCS(=O)(=O)CC2)cc1)c1ccc(-c2cc(NC(=O)C3CCCCC3)ccc2F)cc1 [Example 191, 5′-(Cyclohexanecarbonyl-amino)-2′-fluoro-biphenyl-4-carboxylic acid [4-(1,1-dioxo-1lambda*6*-thiomorpholin-4-ylmethyl)-phenyl]-amide] | > 5000 nM | * (* < 50 μM) |  |  |
| Cc1ccc(C(=O)NC2CCCCCC2)cc1-c1ccc(C(=O)Nc2ccc(CN3CCS(=O)(=O)CC3)cc2)cc1 [Example 147, 6-Methyl-biphenyl-3,4′-dicarboxylic acid 3-cycloheptylamide 4′-{[4-(1,1-dioxo-1lambda*6*-thiomorpholin-4-ylmethyl)-phenyl]-amide}] |  |  | 1000 to 5000 nM | * (key: * < 50 μM; ** > 50 μM) |
| Cc1ccc(NC(=O)NC2CCCCC2)cc1-c1ccc(C(=O)Nc2ccc(CN3CCS(=O)(=O)CC3)cc2)cc1 [Example 189, 5′-(3-Cyclohexyl-ureido)-2′-methyl-biphenyl-4-carboxylic acid [4-(1,1-dioxo-1lambda*6*-thiomorpholin-4-ylmethyl)-phenyl]-amide] | < 1000 nM | * (* < 50 μM) |  |  |
| CNS(=O)(=O)Cc1ccc(NC(=O)c2ccc(-c3cc(C(=O)Nc4ccc(N5CCOCC5)cc4)ccc3C)cc2)cc1 [Example 54, 6-Methyl-biphenyl-3,4′-dicarboxylic acid 4′-[(4-methylsulfamoylmethyl-phenyl)-amide] 3-[(4-morpholin-4-yl-phenyl)-amide]] |  |  | 1000 to 5000 nM | ** (key: * < 50 μM; ** > 50 μM) |
| Cc1ccc(C(=O)Nc2ccc(N3CCOCC3)cc2)cc1-c1ccc(C(=O)Nc2ccc3cn[nH]c3c2)cc1 [Example 12, 6-Methyl-biphenyl-3,4′-dicarboxylic acid 4′-[(1H-indazol-6-yl)-amide] 3-[(4-morpholin-4-yl-phenyl)-amide]] |  |  | 1000 to 5000 nM | ** (key: * < 50 μM; ** > 50 μM) |
| Cc1ccc(NC(=O)C2CC2)cc1-c1ccc(C(=O)Nc2cccc(CN(C)C)c2)cc1 [Example 225, 5′-(Cyclopropanecarbonyl-amino)-2′-methyl-biphenyl-4-carboxylic acid (3-dimethylaminomethyl-phenyl)-amide] | > 5000 nM | * (* < 50 μM) |  |  |
| Cc1ccc(C(=O)NCCCN2CCN(C)CC2)cc1-c1ccc(C(=O)Nc2ccc(N3CCOCC3)cc2)cc1 [Example 9, 6-Methyl-biphenyl-3,4′-dicarboxylic acid 3-{[3-(4-methyl-piperazin-1-yl)-propyl]-amide} 4′-[(4-morpholin-4-yl-phenyl)-amide]] |  |  | > 5000 nM | * (key: * < 50 μM; ** > 50 μM) |
| CS(=O)(=O)N1CCN(Cc2ccc(NC(=O)c3ccc(-c4cc(C(=O)Nc5ccc(N6CCOCC6)cc5)ccc4OC(F)(F)F)cc3)cc2)CC1 [Example 256, 6-Trifluoromethoxy-biphenyl-3,4′-dicarboxylic acid 4′-{[4-(4-methanesulfonyl-piperazin-1-ylmethyl)-phenyl]-amide} 3-[(4-morpholin-4-yl-phenyl)-amide]] |  |  | < 1000 nM | * (key: * < 50 μM; ** > 50 μM) |
| Cc1cc(NC(=O)c2ccco2)ccc1-c1cccc(C(=O)Nc2ccc(N3CCOCC3)cc2)c1 [Example 114, Furan-2-carboxylic acid [2-methyl-3′-(4-morpholin-4-yl-phenylcarbamoyl)-biphenyl-4-yl]-amide] | > 5000 nM | * (* < 50 μM) |  |  |
| CN1CCN(C(=O)Nc2ccc(OC(F)(F)F)c(-c3ccc(C(=O)Nc4ccc(CN5CCN(S(C)(=O)=O)CC5)cc4)cc3)c2)CC1 [Example 239, 4-Methyl-piperazine-1-carboxylic acid {4′-[4-(4-methanesulfonyl-piperazin-1-ylmethyl)-phenylcarbamoyl]-6-trifluoromethoxy-biphenyl-3-yl}-amide] | < 1000 nM | * (* < 50 μM) |  |  |
| Cc1ccc(NC(=O)CC2CCOCC2)cc1-c1ccc(C(=O)Nc2ccc(CN3CCS(=O)(=O)CC3)cc2)cc1 [Example 171, 2′-Methyl-5′-(2-tetrahydro-pyran-4-yl-acetylamino)-biphenyl-4-carboxylic acid [4-(1,1-dioxo-1lambda*6*-thiomorpholin-4-ylmethyl)-phenyl]-amide] | < 1000 nM | * (* < 50 μM) |  |  |
| Cc1cc(C(=O)Nc2ccc(N3CCOCC3)cc2)ccc1-c1cccc(C(=O)Nc2cccc(Br)c2)c1 [Example 64, 2′-Methyl-biphenyl-3,4′-dicarboxylic acid 3-[(3-bromo-phenyl)-amide] 4′-[(4-morpholin-4-yl-phenyl)-amide]] |  |  | < 1000 nM | * (key: * < 50 μM; ** > 50 μM) |
| COc1ccc(NC(=O)c2ccc(-c3cc(C(=O)Nc4ccc(N5CCOCC5)cc4)ccc3C)cc2)cc1OC [Example 34, 6-Methyl-biphenyl-3,4′-dicarboxylic acid 4′-[(3,4-dimethoxy-phenyl)-amide] 3-[(4-morpholin-4-yl-phenyl)-amide]] |  |  | 1000 to 5000 nM | ** (key: * < 50 μM; ** > 50 μM) |
| CC(=O)Nc1cc(NC(=O)c2ccc(-c3cc(C(=O)Nc4ccc(N5CCOCC5)cc4)ccc3C)cc2)ccc1C [Example 77, 6-Methyl-biphenyl-3,4′-dicarboxylic acid 4′-[(3-acetylamino-4-methyl-phenyl)-amide] 3-[(4-morpholin-4-yl-phenyl)-amide]] |  |  | 1000 to 5000 nM | * (key: * < 50 μM; ** > 50 μM) |
| Cc1ccc(C(=O)Nc2ccc(N3CCOCC3)cc2)cc1-c1ccc(C(=O)NCCN2CCCCC2)cc1 [Example 6, 6-Methyl-biphenyl-3,4′-dicarboxylic acid 3-[(4-morpholin-4-yl-phenyl)-amide] 4′-[(2-piperidin-1-yl-ethyl)-amide]] |  |  | 1000 to 5000 nM | * (key: * < 50 μM; ** > 50 μM) |
| CCCCS(=O)(=O)N1CCN(Cc2ccc(NC(=O)c3ccc(-c4cc(C(=O)Nc5ccc(N6CCOCC6)cc5)ccc4Cl)cc3)cc2)CC1 [Example 263, 6-Chloro-biphenyl-3,4′-dicarboxylic acid 4′-({4-[4-(butane-1-sulfonyl)piperazin-1-ylmethyl]-phenyl}-amide) 3-[(4-morpholin-4-yl-phenyl)-amide]] |  |  | < 1000 nM | * (key: * < 50 μM; ** > 50 μM) |
